Entries after “also recorded” stand apart in the source; their conditions may differ.
Key:
[1] = test system: organic anion transporting peptides (OATPs); assay: Blockade of dye uptake into ARCaPM cells by BSP; type: cell-based, human; details: 250 μM BSP
Procedure: ARCaPM Cells were plated on live-cell imaging chambers from World Precision Instrument (Sarasota, Fla.) overnight. Cells were treated with 20 μM IR-780 and 250 μM BSP at the same time and cells were imaged using a Perkin-Elmer Ultraview ERS spinning disc confocal microscope.
To determine if the cyanine dye uptake and accumulation in cancer cells was dependent upon OATPs, cells were preincubated with 250 μM bromosulfophthalein (BSP), a competitive inhibitor of organic anion transporting peptides (OATPs) (25), for 5 minutes prior to incubating the cells with cyanine dyes. The uptake and accumulation of cyanine dyes in the presence and absence of BSP were conducted in the stage warmer incubator for a period of 35 minutes. The levels of cyanine dye taken up and accumulated in normal prostate (P69) and prostate cancer (ARCaPM) cells were determined and compared on a real-time basis.

[2] = mouse, in vivo
Procedure: In control mice, the same volume of PBS was injected. The body weight and lethality of these mice were closely followed for 28 days.

[3] = test system: MIA PaCa-2 human pancreatic cancer cells; assay: Structural requirement screen for cancer cell uptake and retention; type: cell-based; details: cultured MIA PaCa-2 cells
Procedure: FIG. 45 depicts structural requirement of heptamethine cyanine dyes for cancer cell uptake and retention in accordance with various embodiments of the present invention. A series of heptamethine cyanine dyes and their derivatives were screened in cultured MIA PaCa-2 human pancreatic cancer cells with parental MHI-148 served as a positive control.
Cells (1×10^4/well) were seeded on vitronectin-coated four-well chamber slides (Nalgen Nunc, Naperville, Ill.) and incubated with T-medium containing 5% FBS for 24 h. After the cells had attached to the chamber slides, the cells were washed with PBS (Phosphate Buffered Saline) and exposed to the cyanine dye at a concentration of 20 μM in T-medium. The slides were incubated at 37° C. for 30 min, washed twice with PBS to remove excess dyes, and cells were fixed with 10% formaldehyde at 4° C. The slides were then washed twice with PBS and covered with glass coverslips with an aqueous mounting medium (Sigma-Aldrich, St. Louis, Mo.). Images were recorded by confocal laser microscopy (Zeiss LSM 510 META, Germany) using a 633 nm excitation laser and 670-810 nm long pass filter, or a fluorescence microscope (Olympus 1×71; Olympus, Melville, N.Y.) equipped with a 75 W Xenon lamp and an Indo-Cyanine Green filter cube (excitation 750-800 nm; emission 820-860 nm) (Chroma, Rockingham, Vt.).

[4] = test system: cultured human cancer cell lines in vitro and their xenograft tumors in vivo; assay: Classification of heptamethine cyanine dyes as active or inactive; type: cell-based; set-up: key: Active: Activity of the dyes denotes specific uptake by cultured human cancer cell lines in vitro and their xenograft tumors in vivo, setermined by NIR fluorescence imaging.; Inactive: These heptamethine cyanine dyes were not accumulated in tumor cells in vitro and xenograft tumors in vivo; details: specific uptake in vitro and in xenograft tumors in vivo, NIR fluorescence imaging
Description: A comparative analysis also uncovered several common structural features of heptamethine cyanine dyes accounting for their preferential uptake and retention by cancer cells. […] A rigid cyclohexenyl ring in the heptamethine chain with a central chlorine atom maintains photostability, increases quantum yield, decreases photobleaching, and reduces dye aggregation in solution (1).

[5] = test system: human renal cancer SN12C at subcutaneous sites; assay: Structural requirement of uptake and retention by tumor tissues in mice; type: in vivo; details: i.p. 10 nmol per mouse, 24 hrs
Procedure: FIG. 46 depicts structural requirement of the uptake and retention of heptamethine cyanine dyes by tumor tissues in mice in accordance with various embodiments of the present invention. Mice bearing human renal cancer SN12C at subcutaneous sites were injected i.p. with MHI-148, IR-1, IR-2, IR-3 and IR-4 heptamethine cyanine dyes at a dose of 10 nmol per mouse. Whole-body optical imaging was taken at 24 hrs using a Kodak Imaging System.
During imaging, mice were maintained in an anesthetized state.

SMILES	effect on uptake of IR-780 by ARCaPM cells ([1]; 20 μM IR-780)	effect on uptake of IR-783 by ARCaPM cells ([1]; 20 μM IR-783)	toxicity as evidenced by gains of body weight [2]	uptake and retention by cancer cell line compared with MHI-148 [3]	Active and inactive heptamethine cyanine dyes [4]	tumor fluorescence signal in whole-body optical imaging [5]
O=C1OC(c2ccc(O)c(S(=O)(=O)O)c2)(c2ccc(O)c(S(=O)(=O)O)c2)c2c(Br)c(Br)c(Br)c(Br)c21 [BSP, bromosulfophthalein]	complete blockade; also recorded: significantly inhibited	abolished; also recorded: abrogated	–	–	–	–
CC1(C)C(/C=C/C=C/C=C/C=C2\N(CCCCS(=O)(=O)O)c3ccc4ccccc4c3C2(C)C)=[N+](CCCCS(=O)(=O)[O-])c2ccc3ccccc3c21 [ICG, indocyanine green, reference compound]	–	–	no toxicity was detected	–	–	–
CC1(C)/C(=C\C=C2/CCCC(/C=C/C3N(CCCO)c4ccccc4C3(C)C)=C2Cl)N(CCCO)c2ccccc21 (stereo not drawn) [IR-1]	–	–	–	devoid of any uptake and retention	Inactive dyes^b	background fluorescence signals
CC(=O)OCCCN1/C(=C/C=C2\CCCC(/C=C/C3N(CCCOC(C)=O)c4ccccc4C3(C)C)=C2Cl)C(C)(C)c2ccccc21 (stereo not drawn) [IR-2]	–	–	–	devoid of any uptake and retention	Inactive dyes^b	background fluorescence signals
CC1(C)/C(=C\C=C2/CCCC(/C=C/C3N(CCCN)c4ccccc4C3(C)C)=C2Cl)N(CCCN)c2ccccc21 (stereo not drawn) [IR-3]	–	–	–	devoid of any uptake and retention	Inactive dyes^b	background fluorescence signals
